Columns and labels:
MCF-7 cells = assay: Cell growth inhibition assay (CCK-8), MCF-7; assay type: cell-based; details: Homo sapiens, MCF7, 24 h
Procedure: (§1) All test compounds and controls were dissolved in DMSO to prepare 250 μM stock solutions. The stock solutions were filtered through a […] and diluted into five concentrations (0.1–250 μM) with DMEM medium. MCF-7 and RAW264.7 cells were inoculated at a concentration of 5,000 cells/100 μl/well into a 96-well plate for 24 h at 37°C in a humidified atmosphere containing 5% CO2. After 24 h of culture, the primary medium was discarded and replaced with 100 μl of fresh DMEM medium containing different concentrations of test compounds in triplicate. After another 24 h of culture, the medium was replaced with 100 μl of fresh DMEM medium containing 10% (v/v) CCK-8 reagent in each well for 2 h at 37°C. The OD value was measured at a wavelength of 450 nm. Cell viability was determined using the following equation: Cell viability=(ODsample-ODnegative control/ODpositive control-ODnegative control)×100% where OD positive control is the absorbance at 450 nm obtained from untreated cells. OD negative control is the absorbance obtained from a blank well containing the cell culture medium and CCK-8 reagent. The IC50 values were calculated from the plot of activity vs. inhibitor concentration by using the GraphPad Prism 5 software ([Yu et al., 2020]).

CDK1/cyclin B1 = molecular target: T1, CDK1/cyclin B1 (Homo sapiens, UniProt P06493); assay: In vitro anti-CDK1/cyclin B1 kinase assay (Kinase-Glo luminescence); assay type: biochemical; details: for inhibition at 20 µM: test compounds at 20 μM, read-out: Inhibition rates (%) CDK1; for Selectivity: CDK1 compared with CDK4 (CDK4 IC50 / CDK1 IC50)
T1 construct: purchased
Procedure: (§2) In vitro anti-CDK1/cyclin B1 and CDK4/cyclin D3 assays were performed as described by the manufacturer. All test compounds and controls were dissolved in dimethyl sulfoxide (DMSO) to prepare 50 μM stock solutions. The stock solutions were diluted by double-distilled water and buffer to 40, 30, 20, and 10 μM working concentrations and stored at −20°C. Buffer, ATP, CDK substrate […], and distilled water were mixed, and then 25 μl of the mixture was added to a 96-well plate. Five microliters of 20 μM test compounds were sequentially added. CDK1/cyclin B1 was diluted to 1 ng/μl, and CDK4/cyclin D3 was diluted to 10 ng/μl using a buffer. Twenty microliters of the kinase solutions were incubated with the test compounds at 30°C for 45 min for CDK1/cyclin B1 and for 60 min for CDK4/cyclin D3. Finally, 50 μl of Kinase-Glo Max reagent was added to each well. The 96-well plate was covered with aluminum foil and incubated at room temperature for 15 min. Luminescence of the test compounds was measured with a microplate reader.

RAW264.7 cells = assay: Cell growth inhibition assay (CCK-8), RAW264.7; assay type: cell-based; details: Mus musculus, 24 h
Procedure: as §1

CDK4/cyclin D3 = molecular target: T2, CDK4/cyclin D3 (Homo sapiens, UniProt P11802); assay: In vitro anti-CDK4/cyclin D3 kinase assay (Kinase-Glo luminescence); assay type: biochemical; details: for inhibition at 20 µM: test compounds at 20 μM, read-out: Inhibition rates (%) CDK4
T2 construct: purchased
Procedure: as §2

MCF-7 tumor cell = system: MCF-7 tumor cell; design: method as in Mou et al., 2021a; details: concentration of 50 μg/ml; ref Mou et al., 2021a; cited from earlier work
CDK1/cyclin B kinase = molecular target: CDK1/cyclin B kinase; design: method as in Mou et al., 2021a; details: ref Mou et al., 2021a; read-out: IC50 against CDK1/cyclin B kinase; cited from earlier work

T1 sequence (P06493 whole entry): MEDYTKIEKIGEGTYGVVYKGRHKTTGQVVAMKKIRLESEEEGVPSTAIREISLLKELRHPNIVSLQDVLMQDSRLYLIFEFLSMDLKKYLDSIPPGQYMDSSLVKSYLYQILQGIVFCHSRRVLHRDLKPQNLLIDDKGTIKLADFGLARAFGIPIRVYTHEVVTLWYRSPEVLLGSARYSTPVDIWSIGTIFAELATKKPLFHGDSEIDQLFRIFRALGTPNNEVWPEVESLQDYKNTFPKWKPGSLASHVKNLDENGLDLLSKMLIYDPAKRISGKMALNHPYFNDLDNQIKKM
T1 sequence (P14635 whole entry partner): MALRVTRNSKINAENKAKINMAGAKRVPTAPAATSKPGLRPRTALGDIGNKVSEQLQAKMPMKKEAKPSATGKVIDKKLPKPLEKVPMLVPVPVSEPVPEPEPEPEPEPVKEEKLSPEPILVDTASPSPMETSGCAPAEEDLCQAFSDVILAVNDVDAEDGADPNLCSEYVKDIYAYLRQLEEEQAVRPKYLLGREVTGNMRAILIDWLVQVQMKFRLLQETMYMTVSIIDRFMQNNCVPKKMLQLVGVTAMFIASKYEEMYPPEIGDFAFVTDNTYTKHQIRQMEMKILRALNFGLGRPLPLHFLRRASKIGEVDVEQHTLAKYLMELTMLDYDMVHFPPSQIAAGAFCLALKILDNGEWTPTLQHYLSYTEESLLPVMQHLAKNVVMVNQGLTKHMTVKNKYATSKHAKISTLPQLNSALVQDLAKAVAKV
T2 sequence (P11802 whole entry): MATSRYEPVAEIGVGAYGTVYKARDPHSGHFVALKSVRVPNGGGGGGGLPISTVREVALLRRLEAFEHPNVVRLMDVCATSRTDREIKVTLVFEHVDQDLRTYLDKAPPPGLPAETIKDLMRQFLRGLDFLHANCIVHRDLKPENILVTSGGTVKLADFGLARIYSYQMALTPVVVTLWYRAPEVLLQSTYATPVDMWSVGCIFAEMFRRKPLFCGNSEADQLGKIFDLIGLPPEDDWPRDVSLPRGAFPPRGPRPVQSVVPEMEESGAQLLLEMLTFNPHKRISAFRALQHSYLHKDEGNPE
T2 sequence (P30281 whole entry partner): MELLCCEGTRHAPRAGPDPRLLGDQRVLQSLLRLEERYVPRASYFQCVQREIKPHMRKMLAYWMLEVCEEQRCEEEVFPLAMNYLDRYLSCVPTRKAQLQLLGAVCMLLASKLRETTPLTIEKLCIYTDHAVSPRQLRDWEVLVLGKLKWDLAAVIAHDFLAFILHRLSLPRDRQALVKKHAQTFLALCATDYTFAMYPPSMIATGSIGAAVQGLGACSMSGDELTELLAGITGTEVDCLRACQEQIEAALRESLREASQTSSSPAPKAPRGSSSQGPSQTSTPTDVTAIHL

Row | SMILES | IC50 (MCF-7 cells) [µM] | IC50 (CDK1/cyclin B1) [µM] | inhibition at 20 µM (CDK1/cyclin B1) [%] | IC50 (RAW264.7 cells) [µM] | inhibition at 20 µM (CDK4/cyclin D3) [%] | melting point [°C] | inhibition rate against MCF-7 tumor cell proliferation (MCF-7 tumor cell) [%] | Selectivity (CDK1/cyclin B1) | IC50 (CDK4/cyclin D3) [µM] | IC50 (CDK1/cyclin B kinase) [µM]
1 | COc1ccc(-c2cc(=O)c3c(O)cc(OCCBr)cc3o2)cc1 [Compound 12c, 7-(2-Bromoethoxy)-5-hydroxy-2-(4-methoxyphenyl)-4H-chromen-4-one] | 131 ± 2.35 | 43.6 ± 1.53 | 37.6 ± 0.12 | 68.4 ± 0.99 | 1.43 ± 0.06 | 175.2 to 175.7 |  |  |  | 
2 | CN1CC[C@H](c2c(O)cc(O)c3c(=O)cc(-c4ccccc4Cl)oc23)[C@H](O)C1 [flavopiridol, reference compound] | 294 ± 3.13 |  | 86.79 ± 0.04 | 0.55 ± 0.05 | 89.71 ± 0.03 |  | 90.0 |  |  | 
3 | CCn1cnc2c(Nc3cccc(Cl)c3)nc(NC3CCCCC3N)nc21 (centres unmarked) [CGP74514 A, reference compound] |  | 10.9 ± 0.89 | 62.5 ± 0.05 |  | 48.52 ± 0.04 |  | 96.7 | 3.28 | 35.6 ± 1.02 | 
4 | COc1ccc(-c2cc(=O)c3c(O)c(CN4CCN(C)CC4)c(O)cc3o2)cc1 [Compound 9a, 5,7-Dihydroxy-2-(4-methoxyphenyl)-6-((4-methylpiperazin-1-yl)methyl)-4H-chromen-4-one] |  |  | 26.36 ± 0.09 |  | 5.43 ± 0.06 | 172.3 to 173.4 |  |  |  | 
5 | C=C(C)C(=O)Oc1c(O)c(O)c2c(=O)cc(-c3ccccc3)oc2c1CN1CCN(C)CC1 [pro3o] |  |  |  |  |  |  |  |  |  | 1.26
6 | O=c1cc(-c2ccccc2)oc2c(CN3CCOCC3)c(O)c(CN3CCOCC3)c(O)c12 [Compound 5c, 5,7-Dihydroxy-6,8-bis(morpholinomethyl)-2-phenyl-4H-chromen-4-one] | 76.9 ± 1.47 | 39.6 ± 1.43 | 38.34 ± 0.08 | 59.4 ± 1.23 | 8.15 ± 0.06 | 199.2 to 199.6 |  | 12.85 | 508 ± 5.56 | 
7 | O=c1cc(-c2ccccc2)oc2c(CN3CCSCC3)c(O)cc(O)c12 [Compound 6c, 5,7-Dihydroxy-2-phenyl-8-(thiomorpholinomethyl)-4H-chromen-4-one] |  |  | 34.19 ± 0.1 |  | 9.87 ± 0.09 | 218.3 to 219.5 |  |  |  | 
8 | O=c1cc(-c2ccccc2)oc2c(CN3CCOCC3)c3c(c(O)c12)OCCCCO3 [Compound 2a, 12-Hydroxy-7-(morpholinomethyl)-9-phenyl-2,3,4,5-tetrahydro-[1,4]dioxocino[2,3-g]chromen-11-one] | 79.7 ± 1.81 | 36.4 ± 1.12 | 33.05 ± 0.12 | 2.54 ± 0.12 |  | 213.8 to 214.3 | 96.7 |  |  | 
9 | CCCN(CCC)Cc1c(OCCCCBr)c(O)c(O)c2c(=O)cc(-c3ccccc3)oc12 [Compound 3b, 7-(4-Bromobutoxy)-8-((dipropylamino)methyl)-5,6-dihydroxy-2-phenyl-4H-chromen-4-one] |  |  | 25.33 ± 0.11 |  | 6.01 ± 0.07 | 216.2 to 221.8 |  |  |  | 
